Experimental findings from patent publication US20220193256A1, “NANO-ANTIBIOTICS BASED ON SINGLE-CHAIN DEXTRAN NANOPARTICLES” (priority 2019, published 2022) are described below.

The MIC is the smallest concentration in the dilution series that meets the test's criterion for growth inhibition. In general, AUC refers to concentration integrated over time. Read a high AUC as more exposure.

A short description of series [1]: Release profile test of tobramycin in PBS (dialysis tubes, LC-MS). Format: in vitro ADME. The conditions noted are these: PBS pH 7.4, 37° C. As to the method:
1 mL dialysis tubes (Float-a-lyzer®) were used whose membrane is based on MWCO 8-10 kDa cellulose ester. […] The studies were performed in a chamber at 37° C. and stirring at 250 rpm. Samples were taken at different times and analyzed by LC-MS.

The test system of series [2] is A. baumannii ATCC BAA-747. Nature of the series: MIC, antimicrobial susceptibility test (CLSI M07-A10). Format: cell-based. As to the method: (§1) All test and quality control strains were recovered from frozen storage (−80° C.) and cultured at 35±2° C. for 18-24 h.
(§2) All test articles were dissolved in sterile ultra-pure water at a concentration of 2.56 mg/mL. […] 100 and 200 μL of drug-free medium was added to positive and negative control wells, respectively. Suspensions equivalent to a McFarland 0.5 standard were prepared for each test strain in 5 mL sterile phosphate-buffered saline (PBS) and further diluted 1:150 in CA-MHB to provide an inoculum of 2-8×10^5 CFU/mL. 100 μL of each inoculum was dispensed into all wells—except negative control wells (100 μL sterile water added)—to provide an inoculum of ˜5×10^5 CFU/well and a final volume of 200 μL per well. Assay plates were incubated according to CLSI M07-A10 guidelines of 35±2° C. for 16-20 h in air.

Another series relates to A. baumannii NCTC 12156. Described as above. Format: cell-based. How it is done:
as §1, §2

Another series concerns E. aerogenes KPC 108. The series is described as above. Format: cell-based. As to the method: as §1, §2
The subject of series [3] is E. cloacae complex KPC 114. Described as above. Format: cell-based. As to the method: as §1, §2
For a further series, the system named is E. coli ATCC 25922. Described as above. Format: cell-based. How it is done:
as §1, §2

The subject of the next series is E. coli ATCC BAA-2469. Described as above. The conditions noted are these: Escherichia coli, ATCCBAA2469; read-out: Test Article MIC. Format: cell-based. As to the method:
as §1, §2

Another series has as its system K. pneumoniae ATCC 43816. The description is as above. Format: cell-based. As to the method:
as §1, §2

Series [4] deals with K. pneumoniae ATCC BAA-2146. The series is described as above. As to conditions: Klebsiella pneumoniae, ATCCBAA2146; read-out: Test Article MIC. Format: cell-based. How it is done: as §1, §2
Another series concerns P. aeruginosa ATCC 13437. The series is described as above. Format: cell-based. As to conditions: replicates 1 and 2, as tobramycin concentration. As to the method:
as §1, §2

The test system of series [5] is P. aeruginosa ATCC 27853. The series is described as above. Format: cell-based. As to the method:
as §1, §2

Another series relates to P. aeruginosa. Nature of the series: MIC 50 of free antibiotics and nanoconjugates. Format: cell-based. As to the method: as §1, §2
The subject of the next series is S. aureus. Nature of the series: MIC 50 of free antibiotics and nanoconjugates. Format: cell-based. How it is done:
as §1, §2

Series [6] concerns biofilm of Pseudomonas Aeruginosa PAO1 gfp. In words: Testing against biofilm. Format: cell-based. The conditions noted are these: 3-day biofilm treated for 12 h, tobramycin concentration 2 μg/mL. As to the method: Continuous biofilm of Pseudomonas Aeruginosa PAO1 gfp in LB medium was grown for 3 days. […] Images were obtained using a 20×/0.80 air objective with Zeiss LSM 800 Confocal laser scanning microscope. Simulated fluorescence projections and orthogonoal views sections were processed using ImageJ software. Data were analysed with COMSTAT2 software.

Series [7] is described as follows: In vivo pharmacokinetic profile in the lungs after oropharyngeal deposition. As to conditions: male, Sprague Dawley, rat, lung homogenate, other: oropharyngeal deposition, 10 mg/kg. On the set-up: species or system Sprague Dawley rats. How it is done: The administration technique was oropharyngeal deposition. Following administration, terminal lung samples were collected at the following time-points: 0.083, 0.25, 0.5, 1, 2, 4, 8, 12, 24 h post-dose.
For the purpose of the invention, the AUC was measured by the trapezoidal method using the following formula: […]

The subject of series [8] is P. aeruginosa ATCC 27853. Nature of the series: MIC by visual inspection, P. aeruginosa panel. Format: cell-based. The conditions noted are these: Pseudomonas aeruginosa, ATCC27853; P. aeruginosa ATCC 27853, reference strain; read-out: Test Article MIC. As to the method:
(§3) The clinical isolates were obtained from the Biobank of the Hospital Donostia/Biodonostia (San Sebastian, Spain) with permission. MIC is obtained by visual inspection and considered the minimum concentration at which no bacterial growth can be detected (i. e. the buffer appears transparent) when bacteria was incubated at gradient concentration of test compound.

In a further series the test system is PA14 DSMZ 19882. In words: MIC by visual inspection, P. aeruginosa panel. Format: cell-based. The conditions noted are these: Pseudomonas aeruginosa; PA14 DSMZ 19882, investigational strain; read-out: Test Article MIC. As to the method:
as §3

The test system of the next series is PACC#10. In words: MIC by visual inspection, P. aeruginosa panel. Format: cell-based. As to conditions: Pseudomonas aeruginosa; PACC#10, clinical isolate, mucoid phenotype; read-out: Test Article MIC. As to the method: as §3
A further series concerns PACC#5. In words: MIC by visual inspection, P. aeruginosa panel. Format: cell-based. As to conditions: Pseudomonas aeruginosa; PACC#5, clinical isolate, mucoid phenotype; read-out: Test Article MIC. As to the method: as §3
The subject of the next series is PACC#6. In words: MIC by visual inspection, P. aeruginosa panel. Format: cell-based. As to conditions: Pseudomonas aeruginosa; read-out: Test Article MIC. As to the method:
as §3

For another series, the system named is PACC#7. Nature of the series: MIC by visual inspection, P. aeruginosa panel. The conditions noted are these: Pseudomonas aeruginosa; PACC#7, clinical isolate, mucoid phenotype; read-out: Test Article MIC. Format: cell-based. How it is done:
as §3

The next series has as its system PACC#8. In words: MIC by visual inspection, P. aeruginosa panel. Format: cell-based. As to conditions: Pseudomonas aeruginosa; PACC#8, clinical isolate; read-out: Test Article MIC. As to the method:
as §3

The next series concerns PACC#9. In words: MIC by visual inspection, P. aeruginosa panel. Format: cell-based. The conditions noted are these: Pseudomonas aeruginosa; PACC#9, clinical isolate, mucoid phenotype; read-out: Test Article MIC. How it is done:
as §3

In a further series the test system is PAO1 DSMZ 22644. In words: MIC by visual inspection, P. aeruginosa panel. Format: cell-based. As to conditions: Pseudomonas aeruginosa; PAO1 DSMZ 22644, investigational strain; read-out: Test Article MIC. As to the method: as §3

≈ marks a conversion by molar mass, not a printed value. Marks after values point to notes of the source that are not given here.

Consider `NC[C@H]1O[C@H](O[C@H]2[C@H](O)[C@@H](O[C@H]3O[C@H](CO)[C@@H](O)[C@H](N)[C@H]3O)[C@H](N)C[C@@H]2N)[C@H](N)C[C@@H]1O` [Tobramycin, tobramycin], for which the “Tobramycin released (%)” value worked out at 0.30% in series [1] (time 0 hour); 2.91% in series [1] (time 1 hour); 7.57% in series [1] (time 2 hour); 19.03% in series [1] (time 4 hour); 28.72% in series [1] (time 8 hour); 58.41% in [1] (time 24 hour). Further, the entries for the “Tobramycin released (%)” value in [1] (time 48 hour) and in [1] (time 72 hour) were 78.88% and 87.20%, respectively. Also, the “Test Article MIC” value in [2] (A. baumannii ATCC BAA-747, replicates 1 and 2, as tobramycin concentration) is 0.5 mg/L; in the series on A. baumannii NCTC 12156 (A. baumannii NCTC 12156, replicates 1 and 2, as tobramycin concentration), 4 mg/L; in the series on E. aerogenes KPC 108 (E. aerogenes KPC 108, replicates 1 and 2, as tobramycin concentration), 4 mg/L; in series [3] (E. cloacae complex KPC 114, replicates 1 and 2, as tobramycin concentration) it was 32 mg/L; with E. coli ATCC 25922 (E. coli ATCC 25922, replicates 1 and 2, as tobramycin concentration) it was 2^a μg/mL; in the series with K. pneumoniae ATCC 43816 (K. pneumoniae ATCC 43816, replicates 1 and 2, as tobramycin concentration), 0.5 mg/L. In addition, the “Test Article MIC” value with P. aeruginosa ATCC 13437 (P. aeruginosa ATCC 13437, listed as Free Tobramycin) is 64 mg/L; in the series on P. aeruginosa ATCC 27853 [5] (P. aeruginosa ATCC 27853, replicates 1 and 2, as tobramycin concentration) it was 1^b μg/mL. The MIC is 0.5 mg/L (≈ 1.07 µM) in [2] (Acinetobacter baumannii, ATCCBAA747, read-out: Test Article MIC); 4 mg/L (≈ 8.56 µM) in the series on A. baumannii NCTC 12156 (Acinetobacter baumannii, NCTC12156, read-out: Test Article MIC); 4 mg/L (≈ 8.56 µM) in the series on E. aerogenes KPC 108 (Klebsiella aerogenes, KPC108, read-out: Test Article MIC); 32 mg/L (≈ 68.4 µM) in series [3] (Enterobacter cloacae, read-out: Test Article MIC); 2 mg/L (≈ 4.28 µM) in the series with E. coli ATCC 25922 (Escherichia coli, ATCC25922, read-out: Test Article MIC); more than 128 mg/L with E. coli ATCC BAA-2469. For the same compound, the MIC in the series with K. pneumoniae ATCC 43816 (Klebsiella pneumoniae, ATCC43816, read-out: Test Article MIC) was 0.5 mg/L (≈ 1.07 µM); in series [4], more than 128 mg/L; with P. aeruginosa ATCC 13437 (Pseudomonas aeruginosa, ATCC13437, P. aeruginosa ATCC 13437, read-out: Test Article MIC), 128 mg/L (≈ 274 µM); in the series with P. aeruginosa ATCC 27853 [5] (Pseudomonas aeruginosa, ATCC27853, read-out: Test Article MIC), 1 mg/L (≈ 2.14 µM); with P. aeruginosa ATCC 27853 [8], 0.5 mg/L (≈ 1.07 µM); in the series on PA14 DSMZ 19882, 0.5 mg/L (≈ 1.07 µM). Further, the MIC with PACC#10 is 1 mg/L (≈ 2.14 µM); in the series with PACC#5, 0.5 mg/L (≈ 1.07 µM); in the series on PACC#6 it was not below 4 mg/L; in the series on PACC#7, 0.5 mg/L (≈ 1.07 µM); in the series with PACC#8 it was 0.5 mg/L (≈ 1.07 µM); in the series with PACC#9, 0.5 mg/L (≈ 1.07 µM). For the same compound, the MIC in the series on PAO1 DSMZ 22644 turned out to be 0.5 mg/L (≈ 1.07 µM). Moreover, the “MIC 50, Antibiotic conc.” value in the series on P. aeruginosa and in the series with S. aureus was 0.5 to 1 mg/L each time. Moreover, the “% Biomass (μm^3/μm^2)” value in series [6] and in series [6] (listed as tobramycin) was 68.1% throughout. The AUC in [7] is 1110 µg·h/mL.

Take “Colistin sulfate [Free Colistin sulfate]”: the “MIC 50, Antibiotic conc.” value against P. aeruginosa fell in the range of 1 to 5 mg/L.

Consider “gentamycin sulfate [Free Gentamycin sulfate]”, for which the “MIC 50, Antibiotic conc.” value in the series on P. aeruginosa and in the series with S. aureus was 1 to 5 mg/L each time.
